Assay results from US11066416B2, “Rapafucin derivative compounds and methods of use thereof” (The Johns Hopkins University, priority 2016, dated 2021).

Key:
Assay type in all cases: cell-based
[1] = test system: nucleoside uptake (3H-Thymidine); assay: Rel.Uptake: nucleoside uptake, single concentration assay, cell line as indicated in each table; conditions: 293T, nucleoside uptake, response relative to DMSO
Description: (§1) Nucleoside Uptake Assay (uptake). Nuceloside uptake assays were performed with using 3H-Thymidine as described in Guo et al. (2018) Nat. Chem. 11:254-63. Specific cell lines are indicated in each assay and cultured in complete growth media. Activity is scored according to the IC50 values relative to DMSO control. “Low” indicates an IC50 greater than 600 nM, “Medium” indicates an IC50 between 300 nM and 600 nM “High” indicates an IC50 less than 300 nM. “Rel.Uptake” refers to uptake activity characterization relative to a single concentration assay. “Low” indicates a response greater than 0.6 times the activity relative to DMSO, “Medium” indicates a response between 0.6 and 0.3 times the activity relative to DMSO, “High” indicates a response less than 0.3 times the activity relative to DMSO.

[2] = test system: H929; assay: Cell proliferation assay (Prolif.), H929; conditions: H929 cells; Table 11
Description: Cell Proliferation Assay (Prolif.) Guo et al. (2018) Nat. Chem. 11:254-63. Specific cell lines are indicated in each assay and cultured in complete growth media. Activity is scored according to the IC50 values relative to DMSO control. “Low” indicates an IC50 greater than 600 nM, “Medium” indicates an IC50 between 300 nM and 600 nM “High” indicates an IC50 less than 300 nM. “Rel.Uptake” refers to uptake activity characterization relative to a single concentration assay. “Low” indicates a response greater than 0.6 times the activity relative to DMSO, “Medium” indicates a response between 0.6 and 0.3 times the activity relative to DMSO, “High” indicates a response less than 0.3 times the activity relative to DMSO.

[3] = test system: nucleoside uptake (3H-Thymidine); assay: Nucleoside uptake assay (uptake) using 3H-Thymidine, IC50, cell line as indicated in each table (none given in Table 8); conditions: 3H-Thymidine uptake; cell line not given
Description: as §1

Row | IC50 [3] | SMILES | Rel. Uptake, 293T [1] | Prolif, H929 [2]
1 |  | COc1cc(CC[C@H]2OC(=O)[C@@H]3CCCCN3C(=O)C(=O)C(C)(C)COC(=O)C=CCCN(C)C(=O)[C@@H](Cc3ccccc3)NC(=O)CN(C)C(=O)[C@@H](Cc3ccccc3)NC(=O)[C@H](Cc3ccc(O)cc3)N(C)C(=O)COc3cccc2c3)cc(OC)c1OC [Compound 1566] | medium | medium
2 |  | COc1cc(CC[C@H]2OC(=O)[C@@H]3CCCCN3C(=O)C(=O)C(C)(C)COC(=O)C=CCCN(C)C(=O)[C@@H](Cc3ccccc3)NC(=O)CN(C)C(=O)[C@@H](Cc3ccccc3)NC(=O)[C@H](Cc3ccc(O)cc3)N(C)C(=O)COc3cccc2c3)cc(O)c1OC [Compound 1567] | medium | medium
3 |  | COc1cc(O)c(CC[C@H]2OC(=O)[C@@H]3CCCCN3C(=O)C(=O)C(C)(C)COC(=O)C=CCCN(C)C(=O)[C@@H](Cc3ccccc3)NC(=O)CN(C)C(=O)[C@@H](Cc3ccccc3)NC(=O)[C@H](Cc3ccc(O)cc3)N(C)C(=O)COc3cccc2c3)cc1OC [Compound 1568] | low | low
4 |  | COc1cc(CC[C@H]2OC(=O)[C@@H]3CCCCN3C(=O)C(=O)C(C)(C)COC(=O)C=CCCN(C)C(=O)[C@@H](Cc3ccccc3)NC(=O)CN(C)C(=O)[C@@H](Cc3ccccc3)NC(=O)[C@H](Cc3ccc(O)cc3)N(C)C(=O)COc3cccc2c3)cc(F)c1OC [Compound 1569] | low | low
5 |  | COc1cc(F)c(CC[C@H]2OC(=O)[C@@H]3CCCCN3C(=O)C(=O)C(C)(C)COC(=O)C=CCCN(C)C(=O)[C@@H](Cc3ccccc3)NC(=O)CN(C)C(=O)[C@@H](Cc3ccccc3)NC(=O)[C@H](Cc3ccc(O)cc3)N(C)C(=O)COc3cccc2c3)cc1OC [Compound 1570] | medium | medium
6 |  | COc1ccc(CC[C@H]2OC(=O)[C@@H]3CCCCN3C(=O)C(=O)C(C)(C)COC(=O)C=CCCN(C)C(=O)[C@@H](Cc3ccccc3)NC(=O)CN(C)C(=O)[C@@H](Cc3ccccc3)NC(=O)[C@H](Cc3ccc(O)cc3)N(C)C(=O)COc3cccc2c3)c(F)c1OC [Compound 1571] | low | low
7 |  | COc1ccc(CC[C@H]2OC(=O)[C@@H]3CN(C(=O)OCC4c5ccccc5-c5ccccc54)CCN3C(=O)C(=O)C(C)(C)COC(=O)C=CCCN(C)C(=O)[C@@H](Cc3ccccc3)NC(=O)CN(C)C(=O)[C@@H](Cc3ccccc3)NC(=O)[C@H](Cc3ccc(O)cc3)N(C)C(=O)COc3cccc2c3)cc1OC [Compound 1572] | low | low
8 |  | COc1ccc(CC[C@H]2OC(=O)[C@@H]3CNCCN3C(=O)C(=O)C(C)(C)COC(=O)C=CCCN(C)C(=O)[C@@H](Cc3ccccc3)NC(=O)CN(C)C(=O)[C@@H](Cc3ccccc3)NC(=O)[C@H](Cc3ccc(O)cc3)N(C)C(=O)COc3cccc2c3)cc1OC [Compound 1573] | low | low
9 |  | COc1ccc(CC[C@H]2OC(=O)[C@@H]3CN(C)CCN3C(=O)C(=O)C(C)(C)COC(=O)C=CCCN(C)C(=O)[C@@H](Cc3ccccc3)NC(=O)CN(C)C(=O)[C@@H](Cc3ccccc3)NC(=O)[C@H](Cc3ccc(O)cc3)N(C)C(=O)COc3cccc2c3)cc1OC [Compound 1574] | low | low
10 |  | COc1ccc(CC[C@H]2OC(=O)[C@@H]3CCCCN3C(=O)C(=O)C(C)(C)COC(=O)C=CCCN(C)C(=O)[C@@H](Cc3ccccc3)NC(=O)CN(C)C(=O)[C@@H](Cc3ccccc3)NC(=O)[C@H](Cc3ccc(O)cc3)N(C)C(=O)COc3ccc(F)c2c3)cc1OC [Compound 1575] | low | low
11 |  | COc1ccc(CC[C@H]2OC(=O)[C@@H]3CCCCN3C(=O)C(=O)C(C)(C)COC(=O)C=CCCN(C)C(=O)[C@@H](Cc3ccccc3)NC(=O)CN(C)C(=O)[C@@H](Cc3ccccc3)NC(=O)[C@H](Cc3ccc(O)cc3)N(C)C(=O)COc3cc(F)cc2c3)cc1OC [Compound 1576] | medium | medium
12 |  | COc1ccc(CC[C@H]2OC(=O)[C@@H]3CCCCN3C(=O)C(=O)C(C)(C)COC(=O)C=CCCN(C)C(=O)[C@@H](Cc3ccccc3)NC(=O)CN(C)C(=O)[C@@H](Cc3ccccc3)NC(=O)[C@H](Cc3ccc(O)cc3)N(C)C(=O)COc3cccc2c3)c(OC)c1OC [Compound 1577] | medium | medium
13 |  | COc1ccc(CC[C@H]2OC(=O)[C@@H]3CCCCN3C(=O)C(=O)C(C)(C)COC(=O)C=CCCN(C)C(=O)[C@@H](Cc3ccccc3)NC(=O)CN(C)C(=O)[C@@H](Cc3ccccc3)NC(=O)[C@H](Cc3ccc(O)cc3)N(C)C(=O)COc3cc2ccc3F)cc1OC [Compound 1578] | low | low
14 |  | COc1ccc(CC[C@H]2OC(=O)[C@@H]3CCCCN3C(=O)C(=O)C(C)(C)COC(=O)C=CCCN(C)C(=O)[C@@H](Cc3ccccc3)NC(=O)CN(C)C(=O)[C@@H](Cc3ccccc3)NC(=O)[C@H](Cc3ccc(O)cc3)N(C)C(=O)COc3cccc2c3F)cc1OC [Compound 1579] | medium | medium
15 |  | COc1ccc(CC[C@H]2OC(=O)[C@@H]3CCCCN3C(=O)C(=O)C(C)(C)COC(=O)C=CCCN(C)C(=O)[C@@H](Cc3ccccc3)NC(=O)CN(C)C(=O)[C@@H](Cc3ccccc3)NC(=O)[C@H](Cc3ccc(O)cc3)N(C)C(=O)COc3cncc2c3)cc1OC [Compound 1580] | low | low
16 |  | COc1cc(OC)c(OC)cc1CC[C@H]1OC(=O)[C@@H]2CCCCN2C(=O)C(=O)C(C)(C)COC(=O)C=CCCN(C)C(=O)[C@@H](Cc2ccccc2)NC(=O)CN(C)C(=O)[C@@H](Cc2ccccc2)NC(=O)[C@H](Cc2ccc(O)cc2)N(C)C(=O)COc2cccc1c2 [Compound 1581] | medium | medium
17 |  | COc1cc(CC[C@H]2OC(=O)[C@@H]3CCCCN3C(=O)C(=O)C(C)(C)COC(=O)C=CCCN(C)C(=O)[C@@H](Cc3ccccc3)NC(=O)CN(C)C(=O)[C@@H](Cc3ccccc3)NC(=O)[C@H](Cc3ccc(O)cc3)N(C)C(=O)COc3cccc2c3)c(OC)c(OC)c1 [Compound 1582] | low | low
18 |  | COc1ccc(OC)c(OC)c1CC[C@H]1OC(=O)[C@@H]2CCCCN2C(=O)C(=O)C(C)(C)COC(=O)C=CCCN(C)C(=O)[C@@H](Cc2ccccc2)NC(=O)CN(C)C(=O)[C@@H](Cc2ccccc2)NC(=O)[C@H](Cc2ccc(O)cc2)N(C)C(=O)COc2cccc1c2 [Compound 1583] | low | low
19 |  | COc1ccc(CC[C@H]2OC(=O)[C@@H]3CCCCN3C(=O)C(=O)C(C)(C)COC(=O)C=CCCN(C)C(=O)[C@@H](Cc3ccccc3)NC(=O)CN(C)C(=O)[C@@H](Cc3ccccc3)NC(=O)[C@H](Cc3ccc(O)cc3)N(C)C(=O)COc3cccc2c3)c(O)c1OC [Compound 1584] | low | low
20 | 27.9 nM | COc1ccc(CC[C@H]2OC(=O)[C@@H]3CCCCN3C(=O)C(=O)C(C)(C)COC(=O)/C=C/CCN(C)C(=O)[C@H](C(C)C)N(C)C(=O)[C@@H]3CCCN3C(=O)[C@@H](Cc3ccccc3)N(C)C(=O)CNC(=O)CCC(=O)Nc3cccc2c3)cc1OC [Compound 1605] |  | 
21 | 23.7 nM | COc1ccc(CC[C@H]2OC(=O)[C@@H]3CCCCN3C(=O)C(=O)C(C)(C)COC(=O)/C=C/CCN(C)C(=O)[C@H](C(C)C)N(C)C(=O)[C@@H]3CCCN3C(=O)[C@@H](Cc3ccccc3)N(C)C(=O)[C@H](C)NC(=O)CCC(=O)Nc3cccc2c3)cc1OC [Compound 1606] |  | 
22 | 18 nM | CCC[C@@H]1NC(=O)CCC(=O)Nc2cccc(c2)[C@@H](CCc2ccc(OC)c(OC)c2)OC(=O)[C@@H]2CCCCN2C(=O)C(=O)C(C)(C)COC(=O)/C=C/CCN(C)C(=O)[C@H](C(C)C)N(C)C(=O)[C@@H]2CCCN2C(=O)[C@@H](Cc2ccccc2)N(C)C1=O [Compound 1607] |  | 
23 | 54.1 nM | COc1ccc(CC[C@H]2OC(=O)[C@@H]3CCCCN3C(=O)C(=O)C(C)(C)COC(=O)/C=C/CCN(C)C(=O)[C@H](C(C)C)N(C)C(=O)[C@@H]3CCCN3C(=O)[C@@H](Cc3ccccc3)N(C)C(=O)[C@H](CC(C)C)NC(=O)CCC(=O)Nc3cccc2c3)cc1OC [Compound 1608] |  | 
24 | 55 nM | COc1ccc(CC[C@H]2OC(=O)[C@@H]3CCCCN3C(=O)C(=O)C(C)(C)COC(=O)/C=C/CCN(C)C(=O)[C@H](C(C)C)N(C)C(=O)[C@@H]3CCCN3C(=O)[C@@H](Cc3ccccc3)N(C)C(=O)[C@H](Cc3ccccc3)NC(=O)CCC(=O)Nc3cccc2c3)cc1OC [Compound 1609] |  | 
25 | 16.5 nM | COc1ccc(CC[C@H]2OC(=O)[C@@H]3CCCCN3C(=O)C(=O)C(C)(C)COC(=O)/C=C/CCN(C)C(=O)[C@H](C(C)C)N(C)C(=O)[C@@H]3CCCN3C(=O)[C@@H](Cc3ccccc3)N(C)C(=O)[C@H](c3ccccc3)NC(=O)CCC(=O)Nc3cccc2c3)cc1OC [Compound 1610] |  | 
26 | 48.9 nM | COc1ccc(CC[C@H]2OC(=O)[C@@H]3CCCCN3C(=O)C(=O)C(C)(C)COC(=O)/C=C/CCN(C)C(=O)[C@H](C(C)C)N(C)C(=O)[C@@H]3CCCN3C(=O)[C@@H](Cc3ccccc3)N(C)C(=O)CNC(=O)COc3cccc2c3)cc1OC [Compound 1611] |  | 
